According to ChEMBL document CHEMBL4507291 (2021):

Columns and labels:
[1] = target: Melanocortin receptor 5 (Homo sapiens) (UniProt P33032); assay: Inhibition of Melanocortin MC5 at 10 µM in the Eurofins-Panlabs radioligand binding assay (Eurofins_assay_251400); set-up: ligand concentration 0.035 nM; conditions: Compound concentration 10.0 uM
[2] = target: T1, Aurora kinase A (Homo sapiens) (UniProt O14965); assay: AURKA (Aurora A) Kinase screen; conditions: Compound concentration 1.0 uM
T1 sequence (whole entry): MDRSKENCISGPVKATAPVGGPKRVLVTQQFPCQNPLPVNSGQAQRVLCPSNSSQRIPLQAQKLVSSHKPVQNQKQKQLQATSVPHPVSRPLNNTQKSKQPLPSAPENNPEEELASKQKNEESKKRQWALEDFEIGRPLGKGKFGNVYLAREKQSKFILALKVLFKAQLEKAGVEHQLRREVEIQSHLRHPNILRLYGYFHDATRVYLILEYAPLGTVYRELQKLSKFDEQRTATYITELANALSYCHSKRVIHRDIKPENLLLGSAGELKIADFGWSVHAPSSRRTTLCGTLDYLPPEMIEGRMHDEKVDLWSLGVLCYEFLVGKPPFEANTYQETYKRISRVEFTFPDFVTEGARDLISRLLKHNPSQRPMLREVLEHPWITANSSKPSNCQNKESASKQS

[3] = target: Casein kinase II subunit alpha' (Homo sapiens) (UniProt P19784); assay: CSNK2A2 (CK2 alpha 2) Kinase screen; conditions: Compound concentration 1.0 uM
[4] = target: T2, Ephrin type-A receptor 1 (Homo sapiens) (UniProt P21709); assay: EPHA1 Kinase screen; conditions: Compound concentration 1.0 uM
T2 sequence (whole entry): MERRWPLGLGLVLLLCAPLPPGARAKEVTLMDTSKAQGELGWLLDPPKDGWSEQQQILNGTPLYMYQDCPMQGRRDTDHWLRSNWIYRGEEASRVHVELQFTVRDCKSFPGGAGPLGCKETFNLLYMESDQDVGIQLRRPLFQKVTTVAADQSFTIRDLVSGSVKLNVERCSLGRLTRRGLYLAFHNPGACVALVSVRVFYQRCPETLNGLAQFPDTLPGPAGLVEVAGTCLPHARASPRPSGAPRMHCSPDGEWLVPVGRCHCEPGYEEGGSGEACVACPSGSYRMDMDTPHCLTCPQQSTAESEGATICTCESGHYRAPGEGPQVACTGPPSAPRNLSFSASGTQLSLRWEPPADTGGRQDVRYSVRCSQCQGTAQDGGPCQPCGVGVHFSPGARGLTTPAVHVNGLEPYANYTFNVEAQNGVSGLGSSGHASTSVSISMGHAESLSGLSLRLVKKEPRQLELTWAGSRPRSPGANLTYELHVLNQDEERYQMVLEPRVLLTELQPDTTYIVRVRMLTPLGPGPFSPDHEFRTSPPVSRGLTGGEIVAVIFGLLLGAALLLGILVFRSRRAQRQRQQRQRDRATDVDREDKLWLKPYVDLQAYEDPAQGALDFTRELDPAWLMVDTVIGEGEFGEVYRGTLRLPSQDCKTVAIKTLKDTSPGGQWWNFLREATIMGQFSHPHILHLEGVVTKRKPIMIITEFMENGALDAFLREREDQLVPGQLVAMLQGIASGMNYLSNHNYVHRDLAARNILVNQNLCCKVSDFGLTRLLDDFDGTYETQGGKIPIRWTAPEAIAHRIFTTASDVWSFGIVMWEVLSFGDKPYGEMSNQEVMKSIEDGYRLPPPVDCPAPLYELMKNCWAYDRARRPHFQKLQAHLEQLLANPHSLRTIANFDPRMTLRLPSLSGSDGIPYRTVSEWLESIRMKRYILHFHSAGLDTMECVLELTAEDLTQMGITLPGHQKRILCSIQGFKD

[5] = target: Serine/threonine-protein kinase N1 (Homo sapiens) (UniProt Q16512); assay: PKN1 (PRK1) Kinase screen; conditions: Compound concentration 1.0 uM
[6] = target: T3, Serine/threonine-protein kinase D2 (Homo sapiens) (UniProt Q9BZL6); assay: PRKD2 (PKD2) Kinase screen; conditions: Compound concentration 1.0 uM
T3 sequence (whole entry): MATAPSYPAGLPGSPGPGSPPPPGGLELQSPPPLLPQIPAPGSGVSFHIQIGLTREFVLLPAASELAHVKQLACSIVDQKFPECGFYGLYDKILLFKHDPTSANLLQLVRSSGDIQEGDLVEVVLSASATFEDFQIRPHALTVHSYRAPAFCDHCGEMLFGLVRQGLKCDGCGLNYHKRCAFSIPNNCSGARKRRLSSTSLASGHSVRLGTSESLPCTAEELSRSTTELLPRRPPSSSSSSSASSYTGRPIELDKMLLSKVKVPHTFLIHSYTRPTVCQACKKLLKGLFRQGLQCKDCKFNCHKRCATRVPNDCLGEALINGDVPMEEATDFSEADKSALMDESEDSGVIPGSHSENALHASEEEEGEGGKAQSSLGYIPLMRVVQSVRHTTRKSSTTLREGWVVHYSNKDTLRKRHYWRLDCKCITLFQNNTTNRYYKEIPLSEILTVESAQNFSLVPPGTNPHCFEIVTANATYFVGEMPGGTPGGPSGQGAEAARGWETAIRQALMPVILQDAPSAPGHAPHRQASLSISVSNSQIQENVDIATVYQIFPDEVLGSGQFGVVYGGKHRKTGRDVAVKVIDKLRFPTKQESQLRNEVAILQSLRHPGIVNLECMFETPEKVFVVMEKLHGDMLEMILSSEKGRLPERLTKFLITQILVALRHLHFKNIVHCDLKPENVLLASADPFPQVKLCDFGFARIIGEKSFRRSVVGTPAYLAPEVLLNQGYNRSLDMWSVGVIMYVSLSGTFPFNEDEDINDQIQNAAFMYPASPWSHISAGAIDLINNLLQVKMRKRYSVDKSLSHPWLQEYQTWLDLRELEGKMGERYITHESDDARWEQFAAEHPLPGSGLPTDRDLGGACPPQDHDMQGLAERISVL

[7] = target: Proto-oncogene tyrosine-protein kinase ROS (Homo sapiens) (UniProt P08922); assay: ROS1 Kinase screen; conditions: Compound concentration 1.0 uM
[8] = target: Sphingosine kinase 2 (Homo sapiens) (UniProt Q9NRA0); assay: SPHK2 Kinase screen; conditions: Compound concentration 1.0 uM
[9] = target: Testis-specific serine/threonine-protein kinase 2 (Homo sapiens) (UniProt Q96PF2); assay: STK22B (TSSK2) Kinase screen; conditions: Compound concentration 1.0 uM
[10] = target: Cannabinoid receptor 1 (Homo sapiens) (UniProt P21554); conditions: Compound concentration 10.0 uM

Measured: inhibition

Sequence of Sphingosine kinase 2 (Homo sapiens) (Q9NRA0 whole entry): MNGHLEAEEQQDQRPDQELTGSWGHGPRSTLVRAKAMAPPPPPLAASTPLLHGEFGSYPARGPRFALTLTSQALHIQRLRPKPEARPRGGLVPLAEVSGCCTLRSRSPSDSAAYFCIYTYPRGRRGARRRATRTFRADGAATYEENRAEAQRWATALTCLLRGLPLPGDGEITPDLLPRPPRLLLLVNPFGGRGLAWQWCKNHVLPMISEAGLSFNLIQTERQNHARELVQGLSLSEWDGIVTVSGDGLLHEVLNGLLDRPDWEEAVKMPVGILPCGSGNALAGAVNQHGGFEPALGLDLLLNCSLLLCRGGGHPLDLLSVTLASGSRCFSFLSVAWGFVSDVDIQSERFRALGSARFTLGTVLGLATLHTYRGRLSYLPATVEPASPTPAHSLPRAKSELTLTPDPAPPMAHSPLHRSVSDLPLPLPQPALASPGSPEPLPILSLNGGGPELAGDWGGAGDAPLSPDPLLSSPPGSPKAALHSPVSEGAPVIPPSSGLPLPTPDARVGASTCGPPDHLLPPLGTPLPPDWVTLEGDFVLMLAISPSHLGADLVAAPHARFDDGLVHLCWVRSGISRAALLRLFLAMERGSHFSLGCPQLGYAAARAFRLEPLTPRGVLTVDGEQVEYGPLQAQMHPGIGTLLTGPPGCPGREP
Sequence of Cannabinoid receptor 1 (Homo sapiens) (P21554 whole entry): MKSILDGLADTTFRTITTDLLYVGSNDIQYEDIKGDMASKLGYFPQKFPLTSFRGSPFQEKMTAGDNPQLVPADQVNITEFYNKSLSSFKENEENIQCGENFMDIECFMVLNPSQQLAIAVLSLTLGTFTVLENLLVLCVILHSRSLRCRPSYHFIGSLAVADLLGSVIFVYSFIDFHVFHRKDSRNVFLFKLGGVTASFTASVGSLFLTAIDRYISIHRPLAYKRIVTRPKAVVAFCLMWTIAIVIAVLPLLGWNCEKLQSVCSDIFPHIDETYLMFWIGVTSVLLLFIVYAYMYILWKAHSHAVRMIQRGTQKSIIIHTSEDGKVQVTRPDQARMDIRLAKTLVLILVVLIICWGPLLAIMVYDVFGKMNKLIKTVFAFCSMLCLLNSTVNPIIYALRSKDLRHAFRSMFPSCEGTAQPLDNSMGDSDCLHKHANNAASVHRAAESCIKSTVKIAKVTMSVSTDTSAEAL
Sequence of Serine/threonine-protein kinase N1 (Homo sapiens) (Q16512 2-942 limits assumed): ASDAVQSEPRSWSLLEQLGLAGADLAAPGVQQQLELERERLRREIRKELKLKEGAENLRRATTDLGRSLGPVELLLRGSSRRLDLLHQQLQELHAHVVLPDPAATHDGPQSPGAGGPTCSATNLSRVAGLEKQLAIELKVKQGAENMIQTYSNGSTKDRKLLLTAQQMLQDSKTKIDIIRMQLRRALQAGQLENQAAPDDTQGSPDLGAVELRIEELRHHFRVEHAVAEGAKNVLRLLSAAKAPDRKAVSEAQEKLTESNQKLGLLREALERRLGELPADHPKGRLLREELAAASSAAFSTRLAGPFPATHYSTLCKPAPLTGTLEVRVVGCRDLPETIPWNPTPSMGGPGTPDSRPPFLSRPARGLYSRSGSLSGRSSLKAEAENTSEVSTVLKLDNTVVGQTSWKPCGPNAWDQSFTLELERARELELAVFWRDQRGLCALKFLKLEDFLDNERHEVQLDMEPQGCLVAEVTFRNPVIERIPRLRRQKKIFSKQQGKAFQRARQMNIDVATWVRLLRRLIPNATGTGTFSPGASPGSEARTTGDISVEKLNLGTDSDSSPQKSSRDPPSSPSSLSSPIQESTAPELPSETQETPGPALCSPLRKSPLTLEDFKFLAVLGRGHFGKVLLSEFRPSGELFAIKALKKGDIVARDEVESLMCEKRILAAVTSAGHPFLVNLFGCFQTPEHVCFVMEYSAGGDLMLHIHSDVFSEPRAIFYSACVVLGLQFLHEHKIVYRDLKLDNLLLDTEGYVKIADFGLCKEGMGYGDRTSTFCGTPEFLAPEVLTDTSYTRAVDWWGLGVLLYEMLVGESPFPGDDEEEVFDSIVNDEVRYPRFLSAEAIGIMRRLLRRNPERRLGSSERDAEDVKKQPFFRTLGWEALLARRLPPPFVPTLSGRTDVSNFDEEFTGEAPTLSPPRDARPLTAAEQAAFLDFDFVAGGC
Sequence of Casein kinase II subunit alpha' (Homo sapiens) (P19784 whole entry, looked up): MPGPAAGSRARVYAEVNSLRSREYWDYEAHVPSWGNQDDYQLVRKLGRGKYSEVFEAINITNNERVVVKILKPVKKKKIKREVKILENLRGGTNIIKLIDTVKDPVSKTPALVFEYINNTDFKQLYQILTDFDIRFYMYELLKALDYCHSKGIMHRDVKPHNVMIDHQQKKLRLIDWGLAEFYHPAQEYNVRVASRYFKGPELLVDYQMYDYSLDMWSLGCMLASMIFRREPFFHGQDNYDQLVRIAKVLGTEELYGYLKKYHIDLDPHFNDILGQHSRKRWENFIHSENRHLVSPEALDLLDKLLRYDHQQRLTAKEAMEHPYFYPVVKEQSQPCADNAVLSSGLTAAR
Sequence of Testis-specific serine/threonine-protein kinase 2 (Homo sapiens) (Q96PF2 whole entry): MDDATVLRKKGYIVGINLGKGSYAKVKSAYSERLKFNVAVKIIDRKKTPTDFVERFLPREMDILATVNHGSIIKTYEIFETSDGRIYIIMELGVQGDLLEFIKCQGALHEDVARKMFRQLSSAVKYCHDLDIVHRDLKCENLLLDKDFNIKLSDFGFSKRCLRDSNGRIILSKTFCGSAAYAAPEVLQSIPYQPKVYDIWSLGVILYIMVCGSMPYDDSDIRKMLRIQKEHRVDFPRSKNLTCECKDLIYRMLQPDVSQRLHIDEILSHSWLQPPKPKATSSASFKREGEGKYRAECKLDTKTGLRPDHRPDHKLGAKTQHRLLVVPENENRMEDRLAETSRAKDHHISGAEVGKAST
Sequence of Melanocortin receptor 5 (Homo sapiens) (P33032 whole entry): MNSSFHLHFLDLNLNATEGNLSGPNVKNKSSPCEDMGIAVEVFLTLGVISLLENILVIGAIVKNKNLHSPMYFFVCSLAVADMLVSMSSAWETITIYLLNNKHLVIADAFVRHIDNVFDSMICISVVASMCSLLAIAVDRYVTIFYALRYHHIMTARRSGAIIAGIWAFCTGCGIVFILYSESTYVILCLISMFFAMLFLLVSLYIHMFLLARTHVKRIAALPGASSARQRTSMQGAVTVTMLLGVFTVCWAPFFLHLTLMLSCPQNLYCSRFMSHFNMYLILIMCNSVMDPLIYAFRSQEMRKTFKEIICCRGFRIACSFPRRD

C[C@@H]1CN(c2cc(-c3n[nH]c4ccc(OC5(C)CC5)cc34)ncn2)C[C@H](C)O1 [MLi-2]
inactive: [1] -3% | [2] -0.211% | [3] 10.4% | [4] 7.77% | [5] 1.46% | [6] 19% | [7] 2.52% | [8] -0.739% | [9] 10.2% | [10] 20%
